Results from patent publication US20090137572A1, “2-substituted-4-heteroaryl-pyrimidines useful for the treatment of proliferative disorders” (priority 2004, published 2009).

Key:
Experiment in all cases: Kinase selectivity profile, kinase inhibition IC50 (Table 4), ATP 100 μM
Format in all cases: biochemical
[1] = target: T1, protein kinases (panel of Table 4) (Homo sapiens, UniProt P06493); settings: kinase CDK1B
T1 construct: other: kinase CDK1B; ATP 100 μM
Procedure: (§1) For the assays shown in Table 3, the kinases were assayed at the following ATP concentrations: SAPK4, PKBΔph, GSK3b, SAPK3, CK2, MKK1, PIM2, IKKB, ERK8, and PRK2 at 5 μM; JNK, PRAK, ROCK-II, SAPK2b, CDK2, CHK1, MSK1, CSK, P70S6K, PKA, CK1, MAPKAP-K2, SGK, PKCa, PDK1, NEK 7, and MAPKAP-K3 at 20 μM; SAPK2a, LCK, AMPK, MAPK2, DYRK1a, MAPKAP-K1a, NEK-6, NEK2a, PBK, CAMK-1, SRPK-1, JNK3, MNK2, RSK2, MNK1, PKBB, and SmMLCK at 50 μM. For the assays in Table 4 the ATP concentration was 100 μM throughout.

[2] = target: T2, protein kinases (panel of Table 4) (Homo sapiens, UniProt O14965); settings: kinase Aurora A
T2 construct: other: kinase Aurora A; ATP 100 μM
T2 sequence (O14965 1-403): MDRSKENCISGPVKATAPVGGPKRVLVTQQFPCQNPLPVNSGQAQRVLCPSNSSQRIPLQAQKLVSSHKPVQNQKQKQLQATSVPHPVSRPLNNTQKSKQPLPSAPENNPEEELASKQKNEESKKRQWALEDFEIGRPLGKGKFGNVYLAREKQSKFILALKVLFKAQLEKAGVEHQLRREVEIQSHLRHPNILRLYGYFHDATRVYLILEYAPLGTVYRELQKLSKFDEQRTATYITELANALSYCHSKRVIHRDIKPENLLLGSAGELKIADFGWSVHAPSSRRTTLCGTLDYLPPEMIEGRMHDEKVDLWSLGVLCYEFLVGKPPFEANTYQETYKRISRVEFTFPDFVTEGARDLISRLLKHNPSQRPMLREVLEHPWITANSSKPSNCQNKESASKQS
Procedure: as §1

[3] = target: T3, protein kinases (panel of Table 4) (Homo sapiens, UniProt Q00534); settings: kinase CDK6D3
T3 construct: other: kinase CDK6D3; ATP 100 μM
T3 sequence (Q00534 whole entry): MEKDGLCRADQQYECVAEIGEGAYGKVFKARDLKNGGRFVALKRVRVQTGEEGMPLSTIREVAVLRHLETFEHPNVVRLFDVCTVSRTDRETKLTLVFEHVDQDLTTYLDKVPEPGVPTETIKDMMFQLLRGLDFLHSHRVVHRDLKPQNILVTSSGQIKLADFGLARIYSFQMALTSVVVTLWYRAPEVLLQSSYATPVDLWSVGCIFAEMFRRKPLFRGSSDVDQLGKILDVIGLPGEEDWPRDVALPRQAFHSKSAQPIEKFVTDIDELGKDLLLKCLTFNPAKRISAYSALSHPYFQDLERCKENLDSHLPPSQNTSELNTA
Procedure: as §1

[4] = target: T4, protein kinases (panel of Table 4) (Homo sapiens, UniProt P36888); settings: kinase Flt3
T4 construct: other: kinase Flt3; ATP 100 μM
T4 sequence (P36888 1-993): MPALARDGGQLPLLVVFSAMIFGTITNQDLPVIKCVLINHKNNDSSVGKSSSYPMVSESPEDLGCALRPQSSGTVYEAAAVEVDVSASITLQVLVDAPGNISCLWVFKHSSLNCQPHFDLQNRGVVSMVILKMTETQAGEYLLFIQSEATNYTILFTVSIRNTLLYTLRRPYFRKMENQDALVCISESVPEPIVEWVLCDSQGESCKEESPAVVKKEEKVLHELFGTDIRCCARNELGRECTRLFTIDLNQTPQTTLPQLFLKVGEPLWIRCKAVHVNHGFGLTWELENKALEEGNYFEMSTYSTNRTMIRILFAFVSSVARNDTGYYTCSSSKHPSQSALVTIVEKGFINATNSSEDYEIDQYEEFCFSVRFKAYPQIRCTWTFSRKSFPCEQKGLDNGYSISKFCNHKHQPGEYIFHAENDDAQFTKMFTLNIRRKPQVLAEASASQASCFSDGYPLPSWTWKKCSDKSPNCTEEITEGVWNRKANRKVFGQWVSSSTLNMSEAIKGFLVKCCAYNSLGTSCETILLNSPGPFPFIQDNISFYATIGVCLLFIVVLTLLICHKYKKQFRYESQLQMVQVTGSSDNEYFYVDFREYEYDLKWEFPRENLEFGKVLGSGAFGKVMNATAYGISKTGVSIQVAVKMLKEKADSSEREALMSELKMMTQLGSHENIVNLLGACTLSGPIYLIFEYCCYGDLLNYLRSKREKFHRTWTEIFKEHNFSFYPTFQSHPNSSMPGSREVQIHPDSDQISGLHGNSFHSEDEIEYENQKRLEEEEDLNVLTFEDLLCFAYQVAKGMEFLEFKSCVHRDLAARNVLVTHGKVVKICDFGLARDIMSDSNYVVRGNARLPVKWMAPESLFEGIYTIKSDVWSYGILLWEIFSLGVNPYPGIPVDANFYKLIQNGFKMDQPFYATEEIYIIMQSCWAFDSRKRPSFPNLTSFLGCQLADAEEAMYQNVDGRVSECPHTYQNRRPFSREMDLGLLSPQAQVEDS
Procedure: as §1

[5] = target: T5, protein kinases (panel of Table 4) (Homo sapiens, UniProt P50613); settings: kinase CDK7H
T5 construct: other: kinase CDK7H; ATP 100 μM
T5 sequence (P50613 whole entry): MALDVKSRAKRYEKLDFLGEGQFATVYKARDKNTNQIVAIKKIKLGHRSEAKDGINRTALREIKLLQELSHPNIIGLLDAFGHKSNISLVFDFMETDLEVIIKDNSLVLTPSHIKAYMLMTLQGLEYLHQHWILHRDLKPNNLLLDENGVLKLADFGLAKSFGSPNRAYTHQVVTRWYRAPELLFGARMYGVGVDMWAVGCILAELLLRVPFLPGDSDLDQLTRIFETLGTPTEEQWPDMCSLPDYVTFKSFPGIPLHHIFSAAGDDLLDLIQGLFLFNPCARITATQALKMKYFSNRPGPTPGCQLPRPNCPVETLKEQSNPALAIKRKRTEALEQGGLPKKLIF
Procedure: as §1

[6] = target: T6, protein kinases (panel of Table 4) (Homo sapiens, UniProt P06239); settings: kinase Lck
T6 construct: other: kinase Lck; ATP 100 μM
T6 sequence (P06239 whole entry): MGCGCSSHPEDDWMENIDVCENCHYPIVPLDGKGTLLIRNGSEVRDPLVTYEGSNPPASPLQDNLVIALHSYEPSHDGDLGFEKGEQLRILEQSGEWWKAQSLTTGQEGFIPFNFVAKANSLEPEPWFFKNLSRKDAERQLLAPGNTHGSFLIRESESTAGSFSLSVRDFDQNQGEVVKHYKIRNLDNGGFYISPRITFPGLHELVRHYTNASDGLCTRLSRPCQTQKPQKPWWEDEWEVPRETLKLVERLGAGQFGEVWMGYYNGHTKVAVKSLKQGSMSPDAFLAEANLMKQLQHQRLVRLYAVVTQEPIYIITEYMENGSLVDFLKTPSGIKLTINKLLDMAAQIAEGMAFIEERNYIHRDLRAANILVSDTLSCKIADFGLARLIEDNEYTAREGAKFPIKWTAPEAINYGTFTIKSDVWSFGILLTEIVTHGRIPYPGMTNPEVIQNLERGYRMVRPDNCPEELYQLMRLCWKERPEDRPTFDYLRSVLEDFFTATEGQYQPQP
Procedure: as §1

[7] = target: T7, protein kinases (panel of Table 4); settings: kinase CaMKII
T7 construct: other: kinase CaMKII; ATP 100 μM
Procedure: as §1

[8] = target: T8, protein kinases (panel of Table 4) (Homo sapiens, UniProt P49840); settings: kinase GSK3a
T8 construct: other: kinase GSK3a; ATP 100 μM
T8 sequence (P49840 whole entry): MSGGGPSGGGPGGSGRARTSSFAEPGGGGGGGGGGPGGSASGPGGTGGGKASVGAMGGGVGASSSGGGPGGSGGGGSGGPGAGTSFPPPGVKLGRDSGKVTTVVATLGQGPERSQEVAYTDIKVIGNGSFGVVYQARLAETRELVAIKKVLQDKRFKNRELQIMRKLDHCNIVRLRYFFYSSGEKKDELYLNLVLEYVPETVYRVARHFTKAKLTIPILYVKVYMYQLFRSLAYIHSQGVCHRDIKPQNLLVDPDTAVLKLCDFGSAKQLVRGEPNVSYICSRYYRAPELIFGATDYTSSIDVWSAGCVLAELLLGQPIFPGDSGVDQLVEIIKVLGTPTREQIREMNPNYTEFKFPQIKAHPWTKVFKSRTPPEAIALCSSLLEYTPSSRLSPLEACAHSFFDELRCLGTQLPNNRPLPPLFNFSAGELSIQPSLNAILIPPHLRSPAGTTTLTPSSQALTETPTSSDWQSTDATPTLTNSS
Procedure: as §1

[9] = target: T9, protein kinases (panel of Table 4); settings: kinase PKC
T9 construct: other: kinase PKC; ATP 100 μM
Procedure: as §1

[10] = target: T10, protein kinases (panel of Table 4) (Homo sapiens, UniProt P53350); settings: kinase Plk1
T10 construct: other: kinase Plk1; ATP 100 μM
T10 sequence (P53350 whole entry): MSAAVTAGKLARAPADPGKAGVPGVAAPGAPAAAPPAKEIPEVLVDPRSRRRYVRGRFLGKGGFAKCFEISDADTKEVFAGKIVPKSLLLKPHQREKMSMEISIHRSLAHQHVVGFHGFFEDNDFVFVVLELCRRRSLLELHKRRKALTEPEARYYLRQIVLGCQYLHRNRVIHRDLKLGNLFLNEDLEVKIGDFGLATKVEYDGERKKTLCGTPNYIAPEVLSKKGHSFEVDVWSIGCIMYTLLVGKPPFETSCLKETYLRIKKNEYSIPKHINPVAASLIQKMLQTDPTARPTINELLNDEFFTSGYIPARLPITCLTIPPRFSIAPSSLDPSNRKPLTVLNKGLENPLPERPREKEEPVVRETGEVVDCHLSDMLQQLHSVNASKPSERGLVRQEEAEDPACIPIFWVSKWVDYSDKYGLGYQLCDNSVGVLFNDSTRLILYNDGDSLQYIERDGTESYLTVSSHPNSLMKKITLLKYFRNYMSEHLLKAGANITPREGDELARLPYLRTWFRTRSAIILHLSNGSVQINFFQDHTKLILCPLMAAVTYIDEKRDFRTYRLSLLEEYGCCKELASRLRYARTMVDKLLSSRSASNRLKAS
Procedure: as §1

[11] = target: T11, protein kinases (panel of Table 4) (Homo sapiens, UniProt Q96GD4); settings: kinase Aurora B
T11 construct: other: kinase Aurora B; ATP 100 μM
T11 sequence (Q96GD4 whole entry): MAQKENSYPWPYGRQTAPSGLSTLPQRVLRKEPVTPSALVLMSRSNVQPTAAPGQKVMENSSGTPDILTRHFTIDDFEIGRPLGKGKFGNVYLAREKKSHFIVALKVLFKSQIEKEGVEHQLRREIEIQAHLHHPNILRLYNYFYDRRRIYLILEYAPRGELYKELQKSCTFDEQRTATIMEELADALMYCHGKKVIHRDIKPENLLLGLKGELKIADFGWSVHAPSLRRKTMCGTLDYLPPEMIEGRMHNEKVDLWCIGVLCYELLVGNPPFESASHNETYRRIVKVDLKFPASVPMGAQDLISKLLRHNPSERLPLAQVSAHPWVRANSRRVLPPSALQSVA
Procedure: as §1

T1 sequence (P06493 whole entry): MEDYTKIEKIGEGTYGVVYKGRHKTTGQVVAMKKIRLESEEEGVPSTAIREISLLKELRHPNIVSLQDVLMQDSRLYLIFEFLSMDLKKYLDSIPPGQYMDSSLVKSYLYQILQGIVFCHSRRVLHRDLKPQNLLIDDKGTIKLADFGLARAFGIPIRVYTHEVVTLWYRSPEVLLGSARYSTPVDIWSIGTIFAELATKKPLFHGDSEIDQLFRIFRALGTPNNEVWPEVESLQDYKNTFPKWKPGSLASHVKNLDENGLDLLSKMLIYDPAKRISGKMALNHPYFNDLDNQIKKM

Structure (SMILES)	IC50 [1]	IC50 [2]	IC50 [3]	IC50 [4]	IC50 [5]	IC50 [6]	IC50 [7]	IC50 [8]	IC50 [9]	IC50 [10]	IC50 [11]
CNc1nc(C)c(-c2ccnc(Nc3cccc(S(N)(=O)=O)c3)n2)s1 [Compound 19, 3-[4-(4-Methyl-2-methylamino-thiazol-5-yl)-pyrimidin-2-ylamino]-benzenesulfonamide]	200 nM	40 nM	39 nM	30 nM	54 nM	490 nM	4300 nM	160 nM	5500 nM	> 10000 nM	20 nM
CNc1nc(C)c(-c2ccnc(Nc3cccc(S(C)(=O)=O)c3)n2)s1 [Compound 27, (3-Methanesulfonyl-phenyl)-[4-(4-methyl-2-methylamino-thiazol-5-yl)-pyrimidin-2-yl]-amine]	260 nM	320 nM	330 nM	65 nM	200 nM	500 nM	> 10000 nM	12 nM	> 10000 nM	> 10000 nM	260 nM
CNc1nc(C)c(-c2ccnc(Nc3ccc(C)c(S(=O)(=O)N4CCOCC4)c3)n2)s1 [Compound 37, [4-(4-Methyl-2-methylamino-thiazol-5-yl)-pyrimidin-2-yl]-[4-methyl-3-(morpholine-4-sulfonyl)-phenyl]-amine]	> 10000 nM	1100 nM	> 10000 nM	170 nM	5900 nM	4900 nM	> 10000 nM	650 nM	6400 nM	> 10000 nM	240 nM
Cc1ccc(Nc2nccc(-c3sc(N)nc3C)n2)cc1S(=O)(=O)N1CCOCC1 [Compound 38, [4-(2-Amino-4-methyl-thiazol-5-yl)-pyrimidin-2-yl]-[4-methyl-3-(morpholine-4-sulfonyl)-phenyl]-amine]	> 10000 nM	450 nM	4800 nM	200 nM	650 nM	2600 nM	6200 nM	960 nM	2500 nM	> 10000 nM	140 nM
COCCNS(=O)(=O)c1cccc(Nc2nccc(-c3sc(N)nc3C)n2)c1 [Compound 55, 3-[4-(2-Amino-4-methyl-thiazol-5-yl)-pyrimidin-2-ylamino]-N-(2-methoxy-ethyl)-benzenesulfonamide]	2900 nM	160 nM	2100 nM	180 nM	620 nM	1800 nM	> 10000 nM	290 nM	5800 nM	> 10000 nM	110 nM
CCNc1nc(C)c(-c2ccnc(Nc3ccc(N4CCNCC4)cc3)n2)s1 [Compound 59, [4-(2-Ethylamino-4-methyl-thiazol-5-yl)-pyrimidin-2-yl]-(4-piperazin-1-yl-phenyl)-amine]	1200 nM	90 nM	29 nM	17 nM	160 nM	120 nM	1000 nM	> 10000 nM	> 10000 nM	> 10000 nM	16 nM
